How the values were obtained:
spleen cells = assay: cells; type: cell-based; settings: 24 h, read-out: Minimum effective concentration (interferon inducing activity), CD(SD)IGS rat spleen cells, 24 hours incubation; interferon in supernatant by L929/vesicular stomatitis virus bioassay
[1] = Metabolic stability test using human plasma; type: in vitro ADME; settings: 1 μM test compound, 37° C. for 15 minutes, residual amount per pre-metabolization concentration as 100%
Protocol: Plasma was prepared from fresh human blood and the test compound (containing 1% DMSO) of the final concentration of 1 μM was added thereto.
After a metabolic reaction by plasma esterase was conducted at 37° C. for 15 minutes, the test compound was extracted with ethyl acetate, and quantitatively analyzed by reverse phase HPLC. The metabolic stability of the test compound was shown by the residual amount (%) per the concentration of pre-metabolization as 100%.

[2] = Metabolic stability test on rat liver S9; type: in vitro ADME; settings: rat liver S9 with NADPH, 1 μM test compound, 37° C.; residual rate after reaction, LC/MS
Protocol: The reaction using liver S9 of rat was conducted on a 96-well plate by using a screening robot by Tecan Company. S9 solution was prepared by adding 250 mM Kpi (pH 7.4) 20 ml and deionized water 20 ml to 10 ml of liver S9 of rat, a Cofactor solution was prepared by dissolving NADPH 220 mg in deionized water 40.5 ml (Final 6 mM), and IS (Internal Standard) solution was prepared by adding IS solution (1 mM DMSO solution) 300 μl to acetonitrile 30 ml (100 times dilution). The test compound (1 μM DMSO solution) was dissolved in an incubator at 37° C. After each 35 μL was poured in a 96-well plate (24 samples/plate), plates (sample plates, 96-well plates for dilution, each Deep well plates for the reaction and the recovery, plates for extraction of a solid phase) and reagents (S9 solution, Cofactor solution, IS (Internal Standard) solution, Stop solution, acetonitrile for elution) were set to the specified position in the booth of the robot, and the reaction started (the concentration of the test compounds was 1 μM). Incubation was conducted under shaking at 37° C., the solid phase was extracted (at the same time, the internal standard for analysis was added). To the recovered samples 200 μL/well was added 50 μL of acetonitrile per each well, and to 2 plates of FALCON Deep well were poured 100 μL/well of the solution per well. By subjecting to the LC/MS analysis, the chromatography of the test compound and the internal standard were described and the peak area was calculated. And then, the stability (residual rate after reaction) was calculated.

Row | Compound | minimal effective concentration (spleen cells) [µM] | Residual rate [1] [%] | Residual rate [2] [%]
1 | Nc1nc(SCCCO)nc2c1nc(O)n2Cc1cccc(CC(=O)O)c1 [Comparative example 1, 9-(3-Carboxymethylbenzyl)-8-hydroxy-2-(3-hydroxypropylthio)adenine, reference compound] | > 1 |  | 
2 | Nc1nc(SCCCCO)nc2c1nc(O)n2Cc1cccc(CC(=O)O)c1 [Comparative example 2, 9-(3-Carboxymethylbenzyl)-8-hydroxy-2-(4-hydroxybutylthio)adenine, reference compound] | 1 |  | 
3 | COC(=O)Cc1cccc(Cn2c(O)nc3c(N)nc(SCCCO)nc32)c1 [Example 1, 8-Hydroxy-2-(3-hydroxypropylthio)-9-(3-methoxycarbonylmethylbenzyl)adenine] | 0.01 | <1 | 
4 | COC(=O)Cc1cccc(Cn2c(O)nc3c(N)nc(SCCCCO)nc32)c1 [Example 2, 8-Hydroxy-2-(4-hydroxybutylthio)-9-(3-methoxycarbonylmethylbenzyl)adenine] | 0.01 | <1 | 
5 | COC(=O)Cc1cccc(Cn2c(O)nc3c(N)nc(OCCCO)nc32)c1 [Example 4, 8-Hydroxy-2-(3-hydroxypropoxy)-9-(3-methoxycarbonylmethylbenzyl)adenine] | 0.03 | 3.2 | 8
6 | COC(=O)Cc1cccc(Cn2c(O)nc3c(N)nc(OCCO)nc32)c1 [Example 5, 8-Hydroxy-2-(2-hydroxyethoxy)-9-(3-methoxycarbonylmethylbenzyl)adenine] | 0.1 | 5.8 | 
7 | CCCCOc1nc(N)c2nc(O)n(CCc3cccc(CC(=O)OC)c3)c2n1 [Example 9, 2-Butoxy-8-hydroxy-9-[2-(3-methoxycarbonylmethylphenyl)ethyl]adenine] | 0.03 | 7.9 | 0
8 | CCCCOc1nc(N)c2nc(O)n(CCCc3cccc(CC(=O)OC)c3)c2n1 [Example 10, 2-Butoxy-8-hydroxy-9-[3-(3-methoxycarbonylmethylphenyl)propyl]adenine] | 0.01 | <1 | 1
9 | COC(=O)Cc1cccc(Cn2c(O)nc3c(N)nc(OCC(O)CO)nc32)c1 (stereo not shown) [Example 11, 2-(2,3-Dihydroxy-1-propoxy)-8-hydroxy-9-(3-methoxycarbonylmethylbenzyl)adenine] |  | 20.9 | 
10 | CCOCCOc1nc(N)c2nc(O)n(Cc3cccc(CC(=O)OC)c3)c2n1 [Example 12, 2-(2-Ethoxyethoxy)-8-hydroxy-9-(3-methoxycarbonylmethylbenzyl)adenine] |  |  | 0
11 | COC(=O)Cc1cccc(Cn2c(O)nc3c(N)nc(OCC4CCCCC4)nc32)c1 [Example 13, 2-Cyclohexylmethoxy-8-hydroxy-9-(3-methoxycarbonylmethylbenzyl)adenine] |  |  | 11
12 | COC(=O)CCc1nc(N)c2nc(O)n(Cc3cccc(CC(=O)OC)c3)c2n1 [Example 15, 8-Hydroxy-2-(2-methoxycarbonylethyl)-9-(3-methoxycarbonylmethylbenzyl)adenine] |  |  | 0
13 | CCCCOc1nc(N)c2nc(O)n(Cc3ccc(CC(=O)OC)s3)c2n1 [Example 16, 2-Butoxy-8-hydroxy-9-{(5-methoxycarbonylmethyl-2-thienyl)methyl}adenine] |  |  | 0
14 | CCCCOc1nc(N)c2nc(O)n(Cc3cccc(CC(=O)OC)n3)c2n1 [Example 18, 2-Butoxy-8-hydroxy-9-{(6-methoxycarbonylmethyl-2-pyridyl)methyl}adenine] |  |  | 0
15 | CCCCOc1nc(N)c2nc(O)n(Cc3cc(CC(=O)OC)ccn3)c2n1 [Example 19, 2-Butoxy-8-hydroxy-9-{(4-methoxycarbonylmethyl-2-pyridyl)methyl}adenine] |  |  | 0
16 | CCCCOc1nc(N)c2[nH]c(=O)n(Cc3cc(CC(=O)OC)ccc3OC)c2n1 [Example 20, 2-Butoxy-8-hydroxy-9-[(2-methoxy-5-methoxycarbonylmethyl)benzyl]adenine] |  |  | 0
17 | CCCCOc1nc(N)c2[nH]c(=O)n(Cc3ccc(F)c(CC(=O)OC)c3)c2n1 [Example 21, 2-Butoxy-9-[(4-fluoro-3-methoxycarbonylmethyl)benzyl]-8-hydroxyadenine] |  |  | 1
18 | CCCCOc1nc(N)c2[nH]c(=O)n(Cc3ccc(OC)c(CC(=O)OC)c3)c2n1 [Example 22, 2-Butoxy-8-hydroxy-9-[(4-methoxy-3-methoxycarbonylmethyl)benzyl]adenine] |  |  | 2
19 | Nc1nc(OCCCO)nc2c1nc(O)n2Cc1cccc(CC(=O)O)c1 [compound 4, 9-(3-Carboxymethylbenzyl)-8-hydroxy-2-(3-hydroxypropoxy)adenine, reference compound] | > 1 |  | 
20 | Nc1nc(OCCO)nc2c1nc(O)n2Cc1cccc(CC(=O)O)c1 [compound 5, 9-(3-Carboxymethylbenzyl)-8-hydroxy-2-(2-hydroxyethoxy)adenine, reference compound] | > 1 |  | 
21 | CCCCOc1nc(N)c2nc(O)n(CCc3cccc(CC(=O)O)c3)c2n1 [compound 9, 2-Butoxy-9-[2-(3-carboxymethylphenyl)ethyl]-8-hydroxyadenine, reference compound] | 0.3 |  | 
22 | CCCCOc1nc(N)c2nc(O)n(CCCc3cccc(CC(=O)O)c3)c2n1 [compound 10, 2-Butoxy-9-[3-(3-carboxymethylphenyl)propyl]-8-hydroxyadenine, reference compound] | 0.1 |  | 
